Like-named read-outs stand apart in the source and are kept apart here.
What was measured:
male albino rats = assay: Activity on oxygen consumption; type: in vivo; conditions: rat, per os, corrected for placebo group; for response vs control in vivo at 1 µM, 1 µmol/kg / response vs control in vivo at 0.3 µM, 0.3 µmol/kg / response vs control in vivo at 3 µM, 3 µmol/kg: po; for response vs control in vivo at 1 µM, 1 µmol/kg: 1 μM/kg; for response vs control in vivo at 3 µM, 3 µmol/kg: 3 μM/kg
Method: (1) Activity on oxygen consumption
Male albino rats weighing 160-180 g were placed in metabolic cages after fasting for 24 hours. The cages were ventilated with a constant 6 liter room air/minute which was equilibrated at a dew point of 11° C. Samples of the spent air were collected during periods of in each case 14 minutes after again equilbrating and the oxygen content and CO2 content were analyzed. After an adaptation time of 4 hours the animals, divided into groups of 6, received either placebo (5% gum arabic) or the test substance (suspended in 5% gum arabic) per os. Thereafter, the determinations were carried out for a period of 12 hours. In Table I there is given the percentage of the average oxygen consumption after medication during the first 3 hours and the entire test duration (12 hours) of the oxygen consumption of the adaptation period, corresponding corrections for variations in the placebo group having been taken into consideration.

[1] = test system: female hyperglycaemic fat mice; assay: Activity on urine glucose and blood glucose and the formation of brown adipose tissue (obese-hyperglycaemic mice); type: in vivo; conditions: oral, percentage of control value; for Blood glucose / Brown adipose tissue (weight of interscapular brown adipose tissue): end of 15-day test
Method: (2) Activity on urine glucose and blood glucose and the formation of brown adipose tissue
Female hyperglycaemic fat mice were adapted to an amount of feed limited to 3 g/day/animal. The test compounds (suspended in 5% gum arabic) or placebo (5% gum arabic) were administered orally twice daily during 15 days. Urine was collected for 6 days a week and urine glucose was determined. Blood glucose and the weight of the interscapular brown adipose tissue were determined at the end of the test.
The test results are given in Table II as a percentage of the control value.

[2] = test system: streptozotocin-diabetic rats; assay: Activity on the urine glucose of streptozotocin-diabetic rats; type: in vivo, albino rats; conditions: oral, 90 μM/kg per day, 2nd week of treatment
Method: (3) Activity on the urine glucose of streptozotocin-diabetic rats
A diabetes was produced in female albino rats (weight 130-140 g) by the subcutaneous injection of streptozotocin (70 mg/kg). The diabetic animals were adapted to an amount of feed limited to 15 g/day/animal. The test compound (suspended in 5% gum arabic) or placebo (5% gum arabic) was administered orally twice daily. The urine was collected for 6 days a week and urine glucose was determined. The urine glucose excretion of the treated animals during the 2nd week of treatment is given in Table III as a percentage of the control value.

[3] = 3 h, 1st-3rd hour, read-out: O2 consumption, % of value of the pre-period, 1st-3rd hour
[4] = 12 h, 1st-12th hour, read-out: O2 consumption, % of value of the pre-period, 1st-12th hour
[5] = 3 h, 0.3 μM/kg, 1st-3rd hour, read-out: O2 consumption, % of value of the pre-period, 1st-3rd hour
[6] = 12 h, 0.3 μM/kg, 1st-12th hour, read-out: O2 consumption, % of value of the pre-period, 1st-12th hour

C[C@H](Cc1ccc(OCCOCCc2ccccc2)cc1)N(C[C@H](O)c1ccccc1)C[C@H](O)c1ccccc1 [Example 1, α,α'-[[[(R)-α-methyl-p-[2-(phenethoxy)ethoxy]phenethyl]imino]dimethylene]di-(R)-benzyl alcohol]
response vs control in vivo at 1 µM, 1 µmol/kg (male albino rats; [3]): 147% | response vs control in vivo at 1 µM, 1 µmol/kg (male albino rats; [4]): 117%

CCOCCOc1ccc(C[C@@H](C)N(C[C@H](O)c2ccccc2)C[C@H](O)c2ccccc2)cc1 [Example 2a, α,α'-[[[(R)-p-(2-ethoxyethoxy)-α-methylphenethyl]imino]dimethylene]di-(R)-benzyl alcohol]
response vs control in vivo at 0.3 µM, 0.3 µmol/kg (male albino rats; [5]): 152% | response vs control in vivo at 0.3 µM, 0.3 µmol/kg (male albino rats; [6]): 114%

COCCOCCOc1ccc(C[C@@H](C)N(C[C@H](O)c2ccccc2)C[C@H](O)c2ccccc2)cc1 [Example 2b]
response vs control in vivo at 1 µM, 1 µmol/kg (male albino rats; [3]): 166% | response vs control in vivo at 1 µM, 1 µmol/kg (male albino rats; [4]): 119%

C[C@H](Cc1ccc(OCCOCCc2ccc(F)cc2)cc1)N(C[C@H](O)c1ccccc1)C[C@H](O)c1ccccc1 [Example 2c]
response vs control in vivo at 1 µM, 1 µmol/kg (male albino rats; [3]): 167% | response vs control in vivo at 1 µM, 1 µmol/kg (male albino rats; [4]): 122%

C[C@H](Cc1ccc(OCCOCc2ccc(Oc3ccccc3)cc2)cc1)N(C[C@H](O)c1ccccc1)C[C@H](O)c1ccccc1 [Example 2e, α,α'-[[[(R)-α-methyl-p-[2-[(p-phenoxybenzyl)oxy]ethoxy]phenethyl]imino]dimethylene]di-(R)-benzyl alcohol]
response vs control in vivo at 1 µM, 1 µmol/kg (male albino rats; [3]): 145% | response vs control in vivo at 1 µM, 1 µmol/kg (male albino rats; [4]): 116%

CCOCCOc1ccc(CCN(C[C@H](O)c2ccccc2)C[C@H](O)c2ccccc2)cc1 [Example 2f, α,α'-[[[p-(2-ethoxyethoxy)phenethyl]imino]dimethylene]di-(R)-benzyl alcohol]
response vs control in vivo at 1 µM, 1 µmol/kg (male albino rats; [3]): 142% | response vs control in vivo at 1 µM, 1 µmol/kg (male albino rats; [4]): 112% | Urine glucose 1st week ([1]; 9 μM/Kg per day): 43% | Urine glucose 2nd week ([1]; 9 μM/Kg per day): 33% | Blood glucose ([1]; 9 μM/Kg per day): 51% | Brown adipose tissue (weight of interscapular brown adipose tissue) ([1]; 9 μM/Kg per day): 158% | Urine glucose 1st week ([1]; 90 μM/Kg per day): 4.8% | Urine glucose 2nd week ([1]; 90 μM/Kg per day): 0.3% | Blood glucose ([1]; 90 μM/Kg per day): 34% | Brown adipose tissue (weight of interscapular brown adipose tissue) ([1]; 90 μM/Kg per day): 163%

C[C@H](Cc1ccc(OCCOCCc2ccccc2)cc1)N(C[C@H](O)c1cccc(Cl)c1)C[C@H](O)c1cccc(Cl)c1 [Example 2g1, α,α'-[[[(R)-α-methyl-p-[2-(phenethoxy)ethoxy]phenethyl]imino]dimethylene]bis[(R)-m-chlorobenzyl alcohol]]
response vs control in vivo at 0.3 µM, 0.3 µmol/kg (male albino rats; [5]): 137% | response vs control in vivo at 0.3 µM, 0.3 µmol/kg (male albino rats; [6]): 117%

CC(Cc1ccc(OCCOCCc2ccccc2)cc1)N(CC(O)c1cccc(Cl)c1)CC(O)c1cccc(Cl)c1 [Example 2g2, (R)-m-chloro-α-[[[(S)-m-chloro-β-hydroxyphenethyl][(R)-α-methyl-p-[2-phenethoxy)ethoxy]phenethyl]amino]-methyl]benzyl alcohol]]
response vs control in vivo at 1 µM, 1 µmol/kg (male albino rats; [3]): 163% | response vs control in vivo at 1 µM, 1 µmol/kg (male albino rats; [4]): 131% | Urine glucose 1st week ([1]; 3 μM/Kg per day): 17.7% | Urine glucose 2nd week ([1]; 3 μM/Kg per day): 2.4% | Blood glucose ([1]; 3 μM/Kg per day): 38% | Brown adipose tissue (weight of interscapular brown adipose tissue) ([1]; 3 μM/Kg per day): 157% | Urine glucose 1st week ([1]; 30 μM/Kg per day): 1.6% | Urine glucose 2nd week ([1]; 30 μM/Kg per day): 0.6% | Blood glucose ([1]; 30 μM/Kg per day): 33% | Brown adipose tissue (weight of interscapular brown adipose tissue) ([1]; 30 μM/Kg per day): 144% | Urine glucose 2nd week, % of controls [2]: 68%

C[C@H](Cc1ccc(OCCOCCc2ccccc2)cc1)N(C[C@@H](O)c1cccc(Cl)c1)C[C@@H](O)c1cccc(Cl)c1 [Example 2g3]
response vs control in vivo at 3 µM, 3 µmol/kg (male albino rats; [3]): 138% | response vs control in vivo at 3 µM, 3 µmol/kg (male albino rats; [4]): 119%

COC(=O)C=CCOc1ccc(C[C@@H](C)N(C[C@H](O)c2ccccc2)C[C@H](O)c2ccccc2)cc1 [Example 4]
O2 consumption, % of value of the pre-period, 1st-3rd hour (male albino rats; 0.3 μM/kg, 1st-3rd hour): 123% | O2 consumption, % of value of the pre-period, 1st-12th hour (male albino rats; 0.3 μM/kg, 1st-12th hour): 110%

CCOCCOc1ccc(CCN(C[C@H](O)c2cccc(Cl)c2)C[C@H](O)c2cccc(Cl)c2)cc1 [Example 8d, α,α'-[[[p-(2-ethoxyethoxy)phenethyl]imino]dimethylene]bis[(R)-m-chlorobenzyl alcohol]]
response vs control in vivo at 3 µM, 3 µmol/kg (male albino rats; [3]): 172% | response vs control in vivo at 3 µM, 3 µmol/kg (male albino rats; [4]): 147%

CCOCCOc1ccc(C[C@@H](C)N(C[C@H](O)c2ccccc2)C[C@H](O)c2cccc(Cl)c2)cc1 [Example 10a1, 3-chloro-α,α'-[[[(R)-p-(2-ethoxyethoxy)-α-methylphenethyl]imino]dimethylene]di-(R)-benzyl alcohol]
response vs control in vivo at 0.3 µM, 0.3 µmol/kg (male albino rats; [5]): 154% | response vs control in vivo at 0.3 µM, 0.3 µmol/kg (male albino rats; [6]): 117%

CCOCCOc1ccc(C[C@@H](C)N(C[C@@H](O)c2cccc(Cl)c2)C[C@H](O)c2ccccc2)cc1 [Example 10a2, (S)-m-chloro-α-[[[(R)-p-(2-ethoxyethoxy)-α-methylphenethyl][(R)-β-hydroxyphenethyl]amino]methyl]benzyl alcohol]
response vs control in vivo at 3 µM, 3 µmol/kg (male albino rats; [3]): 183% | response vs control in vivo at 3 µM, 3 µmol/kg (male albino rats; [4]): 141%

CCOCCOc1ccc(CCN(C[C@@H](O)c2cccc(Cl)c2)C[C@H](O)c2cccc(Cl)c2)cc1 [Example 11, (R)-m-chloro-α-[[[(S)-m-chloro-β-hydroxyphenethyl][p-(2-ethoxyethoxy)phenethyl]amino]methyl]benzyl alcohol]
response vs control in vivo at 3 µM, 3 µmol/kg (male albino rats; [3]): 181% | response vs control in vivo at 3 µM, 3 µmol/kg (male albino rats; [4]): 140%

O[C@H](CN(CCc1ccc(OCCOCCc2ccccc2)cc1)C[C@H](O)c1cccc(Cl)c1)c1cccc(Cl)c1 [Example 12a, (R)-m-chloro-α-[[[(S)-m-chloro-β-hydroxyphenethyl]-[p-[2-(phenethoxy)ethoxy]phenethyl]amino]methyl]benzyl alcohol]
response vs control in vivo at 1 µM, 1 µmol/kg (male albino rats; [3]): 143% | response vs control in vivo at 1 µM, 1 µmol/kg (male albino rats; [4]): 116%

From patent US5017619A, “Phenethanolamine derivatives” (Hoffmann-La Roche Inc., priority 1985, dated 1991)
